Laboratory results reported in patent publication US11326207B2, “Sequencing using non-natural nucleotides” (Ultima Genomics, Inc., priority 2017, dated 2022).
Like-named read-outs stand apart in the source and are kept apart here. Each block holds one compound with its values, some of them ahead of it.

Legend:
Bst 2.0 DNA polymerase = experiment: Homopolymer assays of nucleotide analogs (Example 10); assay type: biochemical
Description: A homopolymer assay was performed to investigate the effectiveness of E-dCTP and P-dUTP as nucleotide analogs of dCTP. 50 μl solutions containing a template nucleic acid molecule and primer and Bst 2.0 DNA polymerase are placed in a microplate reader and the fluorescence of the solution is measured in kinetic mode. A fluorescein attached to an oligonucleotide (indicated with a * in FIG. 7) was quenched in the substrate due to the proximity of complementary G bases. Addition of dCTP and/or dCTP analogs causes extension of the 3′ end of the primer, formation of double-stranded DNA, and unquenching of the fluorescein. The fluorescence increases with the addition of multiple nucleotides.
Additional homopolymer assays were performed according to the procedure outlined in Example 8 using different nucleotides and nucleotide analogs.
To test for dUTP or TTP incorporation, oligo 332 was used as a template and oligo 221L was used as a primer. To test for dCTP incorporation, oligo 333 was used as a template and oligo 221L was used as a primer. To test for dGTP incorporation, oligo 334 was used as a template and oligo 221L was used as a primer. To test for dATP incorporation, hairpin oligo 221 was used as both a primer and template.

Bst DNA polymerase v.2.0 = experiment: Flow cytometry assay: tolerance of dye-labeled dUTP* compared to dUTP analogs (Example 7); assay type: biochemical; settings: for Tolerance: tolerance of dUTP* compared to the named dUTP^0
Description: A solution of biotinylated template (2 microliters (μL) of 100 μM) and dye-labeled primer (4 μL of 100 μM) were combined in annealing buffer (40 μL; Tris (10 millimolar (mM)), EDTA (1 mM), NaCl (100 mM)). The resulting solution was heated to 95° C. and allowed to slowly cool to room temperature. A portion of this solution (8 μL) was mixed with streptavidin-labeled magnetic beads (4 μL of Invitrogen Dynabeads™ MyOne™ Streptavidin C1, 10 milligrams/milliliter (mg/mL); washed and eluant removed) and 2× bead wash buffer (8 μL; 10 mM Tris, pH 7.5, 1 mM EDTA, 2 M NaCl, 0.01% Triton X-100). After washing with TET solution (10 mM Tris, 1 mM EDTA, 0.05% Triton X-100) the beads were treated with Bst DNA polymerase v.2.0 (8 μL of 8 units (U)/μL; New England Biolabs) for five minutes. The excess enzyme was removed by washing with TET and the beads were suspended in 1×DNA polymerase buffer solution (20 mM Tris, pH 8, 10 mM NaCl, 2 mM MgCl2, 0.01% Triton X-100). The sequence of the biotinylated template was /52 Bio//iSp18/[…] […] (SEQ ID NO: 12), where “5” is indicative of the 5′-end of the oligo, 2-Bio indicates dual biotin, and iSP18 indicates a PEG spacer. […] […] (SEQ ID NO: 13), where “5” indicates the 5′-end of the oligo and JOE indicates a fluorescent dye attached to the oligo.
Next, a portion of the suspended magnetic beads (10 μL) were removed and placed in a PCR tube. A solution of nucleotides (10 μL) was added to the tube and the tube incubated for 40 seconds (s) at 50° C. The enzyme reaction was stopped with the addition of 5 μL of 50 mM EDTA. The beads were washed with 2×100 μL TET and resuspended in 20 μL TET. A portion of the bead solution (1 μL) was added to TE (200 μL) and the beads examined for red fluorescence on a flow cytometer (BD Accuri™, APC channel). The eluant of the remaining beads was removed and 40 μL of 95:5 formamide:10 mM EDTA was added to the beads. A portion of the formamide solution (1 μL) was added to 40 μL 95:5 formamide EDTA. The solutions were examined by capillary electrophoresis (CE) on an ABI 3730 instrument and the peaks identified and quantitated by peak height. The experimental protocol is summarized schematically in FIG. 2.
Tolerance was measured at two molar fractions, […] and 0.05, for each of the four dUTP analogs.

hairpin oligo = experiment: Kinetic assay using hairpin oligos (Example 7); assay type: biochemical
Description: A kinetic assay using hairpin oligos was also performed to determine the rate of incorporate of an unnatural nucleotide and a natural nucleotide following the unnatural nucleotide. […] Incorporation of a T or U analog unquenched a fluorescein in the hairpin oligo. Following incorporation of the T or U analog, a mixture of C and A was added, which further unquenched the dye.

DNA polymerase = settings: for peak height (red fluorescence on the gel): dUTP* only (Fr = 1.0) or dUTP*/named dUTP^0
Description: A gel assay was also performed to examine context-dependent incorporation. […] The primers had different lengths poly-T tails to enable separation on a polyacrylamide gel. […] Excess nucleotides and nucleotide analogs were washed away and the sample was loaded onto a gel.
The red fluorescence on the gel was analyzed with ImageJ. The peak heights for the extension reactions for each primer with Fr=1.0 was measured. […] The ratios of the peak heights for each pair were calculated (“norm.”). […] The metric in this experiment was context, as defined as: C=(Maximum signal−minimum signal)/(average signal).

[1] = Natural Nucleotide C (dCTP = 1), template oligo 333, primer 221L
[2] = Natural Nucleotide T (TTP = 1), template oligo 332, primer 221L
[3] = Natural Nucleotide A (dATP = 1), hairpin oligo 221
[4] = Natural Nucleotide G (dGTP = 1), template oligo 334, primer 221L

Compound: Nc1nc(=O)n([C@H]2C[C@H](O)[C@@H](COP(=O)(O)OP(=O)(O)OP(=O)(O)O)O2)cc1Br [5-Bromo-dCTP, 5-bromo-2′-deoxycytidine 5′triphosphate]
Relative Rate in Homopolymer Assay (Bst 2.0 DNA polymerase; [1]): >1

Compound: CC#Cc1cn([C@H]2C[C@H](O)[C@@H](COP(=O)(O)OP(=O)(O)OP(=O)(O)O)O2)c(=O)[nH]c1=O [P-dUTP, 5-propynyl-2′-deoxyuridine 5′triphosphate]
performance as a substrate compared with TTP (in words) (Bst DNA polymerase v.2.0; from tolerance for the labeled nucleotide at both molar fractions): outperforms TTP as a substrate
Apparent fraction (Bst DNA polymerase v.2.0; molar fraction dUTP* 0.05): 0.032
Red signal (Bst DNA polymerase v.2.0; molar fraction dUTP* 0.05, rest the named dUTP^0): 1,600
Apparent fraction (Bst DNA polymerase v.2.0; molar fraction dUTP* 0.5): 0.32
Red signal (Bst DNA polymerase v.2.0; molar fraction dUTP* 0.5, rest the named dUTP^0): 16,000
Tolerance (Bst DNA polymerase v.2.0; molar fraction dUTP* 0.05): 0.6
Tolerance (Bst DNA polymerase v.2.0; molar fraction dUTP* 0.5): 0.6
incorporation of dCTP and dATP after the dUTP analog (hairpin oligo; mixture of C and A added after T or U analog): rapid
initial incorporation of dUTP analog (hairpin oligo; unquenching of fluorescein in hairpin oligo): rapid
Relative Rate in Homopolymer Assay (Bst 2.0 DNA polymerase; [2]): >1
Norm. (ratio of peak height dUTP*/dUTP^0 to Fr=1.0) (DNA polymerase; Peak 1): 1.3
peak height (red fluorescence on the gel) (DNA polymerase; Peak 1 (primer)): 55
Norm. (ratio of peak height dUTP*/dUTP^0 to Fr=1.0) (DNA polymerase; Peak 2): 1.4
peak height (red fluorescence on the gel) (DNA polymerase; Peak 2 (primer)): 54
Norm. (ratio of peak height dUTP*/dUTP^0 to Fr=1.0) (DNA polymerase; Peak 3): 1.0
peak height (red fluorescence on the gel) (DNA polymerase; Peak 3 (primer)): 27
Norm. (ratio of peak height dUTP*/dUTP^0 to Fr=1.0) (DNA polymerase; Peak 4): 1.1
peak height (red fluorescence on the gel) (DNA polymerase; Peak 4 (primer)): 36
Norm. (ratio of peak height dUTP*/dUTP^0 to Fr=1.0) (DNA polymerase; Peak 5): 1.4
peak height (red fluorescence on the gel) (DNA polymerase; Peak 5 (primer)): 32
context C=(Maximum signal−minimum signal)/(average signal) (DNA polymerase; five primers, gel assay with dUTP*): 0.32

Compound: Nc1nc(=O)n([C@H]2C[C@H](O)[C@@H](COP(=O)(O)OP(=O)(O)OP(=O)(O)O)O2)cc1CO [5-Hydroxymethyl-dCTP, 5-ydroxymethyl-2′-deoxycytidine 5′triphosphate]
Relative Rate in Homopolymer Assay (Bst 2.0 DNA polymerase; [1]): <<1

Compound: O=c1[nH]c(=O)n([C@H]2C[C@H](O)[C@@H](COP(=O)(O)OP(=O)(O)OP(=O)(O)O)O2)cc1I [5-Iodo-dUTP, 5-iodo-2′-deoxyuridine 5′triphosphate]
Relative Rate in Homopolymer Assay (Bst 2.0 DNA polymerase; [2]): >1

Compound: Nc1nc(=O)n([C@H]2C[C@H](O)[C@@H](COP(=O)(O)OP(=O)(O)OP(=O)(O)O)O2)cc1O [5-Hydroxy-dCTP, 5-hydroxy-2′-deoxycytidine 5′triphosphate]
Relative Rate in Homopolymer Assay (Bst 2.0 DNA polymerase; [1]): <<1

Compound: Cc1cn([C@H]2C[C@H](O)[C@@H](COP(=O)(O)OP(=O)(O)OP(=O)(O)O)O2)c(=O)nc1N [5-Methyl-dCTP, 5-methyl-2′-deoxycytidine 5′triphosphate]
Relative Rate in Homopolymer Assay (Bst 2.0 DNA polymerase; [1]): >1

Compound: O=c1[nH]c(=O)n([C@H]2C[C@H](O)[C@@H](COP(=O)(O)OP(=O)(O)OP(=O)(O)O)O2)cc1F [5-Fluoro-dUTP, 5-fluoro-2′-deoxyuridine 5′triphosphate]
Relative Rate in Homopolymer Assay (Bst 2.0 DNA polymerase; [2]): <1

Compound: O=c1[nH]c(=O)n([C@H]2C[C@H](O)[C@@H](COP(=O)(O)OP(=O)(O)OP(=O)(O)O)O2)cc1Br [5-Bromo-dUTP, 5-bromo-2′-deoxyuridine 5′triphosphate]
Relative Rate in Homopolymer Assay (Bst 2.0 DNA polymerase; [2]): >1

The remaining lines, values ahead:

Relative Rate in Homopolymer Assay (Bst 2.0 DNA polymerase; [1]): <<1
Compound: Nc1nc(=O)n([C@H]2C[C@H](O)[C@@H](COP(=O)(O)OP(=O)(O)OP(=O)(O)O)O2)cc1C=O [5-formyl-dCTP, 5-formyl-2′-deoxycytidine 5′triphosphate]

Relative Rate in Homopolymer Assay (Bst 2.0 DNA polymerase; [3]): >1
Compound: Nc1ncnc2c1nc(Br)n2[C@H]1C[C@H](O)[C@@H](COP(=O)(O)OP(=O)(O)OP(=O)(O)O)O1 [Bromo-dATP, bromo-deoxyadenosine triphosphate]

Relative Rate in Homopolymer Assay (Bst 2.0 DNA polymerase; [4]): <1
Compound: Nc1nc2c(ccn2[C@H]2C[C@H](O)[C@@H](COP(=O)(O)OP(=O)(O)OP(=O)(O)O)O2)c(=O)[nH]1 [7-deaza-dGTP, 7-deaza-2′-deoxyguanosine-5′-triphosphate]

Relative Rate in Homopolymer Assay (Bst 2.0 DNA polymerase; [3]): >1
Compound: Nc1ncnc2c1c(I)cn2[C@H]1C[C@H](O)[C@@H](COP(=O)(O)OP(=O)(O)OP(=O)(O)O)O1 [7-Iodo-7-deaza-dATP, 7-deaza-7-iodo-2′-deoxyadenosine-5′-triphosphate]

Relative Rate in Homopolymer Assay (Bst 2.0 DNA polymerase; [4]): 1
Compound: Nc1nc2c(ncn2[C@H]2C[C@H](O)[C@@H](COP(=O)(O)OP(=O)(O)OP(=O)(O)O)O2)c(=O)[nH]1 [dGTP, deoxyguanosine triphosphate, reference compound]

Relative Rate in Homopolymer Assay (Bst 2.0 DNA polymerase; [3]): 1
Compound: Nc1ncnc2c1ncn2[C@H]1C[C@H](O)[C@@H](COP(=O)(O)OP(=O)(O)OP(=O)(O)O)O1 [dATP, deoxyadenosine triphosphate, reference compound]

Relative Rate in Homopolymer Assay (Bst 2.0 DNA polymerase; [3]): <1
Compound: Nc1ncnc2c1ccn2[C@H]1C[C@H](O)[C@@H](COP(=O)(O)OP(=O)(O)OP(=O)(O)O)O1 [7-deaza-dATP, 7-deaza-2′-deoxyadenosine-5′-triphosphate]

Relative Rate in Homopolymer Assay (Bst 2.0 DNA polymerase; [2]): <<1
Compound: C#CCNc1cn([C@H]2C[C@H](O)[C@@H](COP(=O)(O)OP(=O)(O)OP(=O)(O)O)O2)c(=O)[nH]c1=O [5-Propargylamino-dUTP, 5-proparylamino-2′-deoxyuridine 5′triphosphate]

Relative Rate in Homopolymer Assay (Bst 2.0 DNA polymerase; [4]): >1
Compound: iodo-2′-deoxyguanosine-5′-triphosphate [Iodo-dGTP]
